PubChem BioAssay AID1159586 (Gregory J. Crowther, 2016)

The molecules below were run against Plasmodium falciparum protein kinase 6 (PK6, PF3D7_1337100) (UniProt Q8IDW1) (assay: PfPK6 kinase inhibitors, biochemical, TCAMS library (AID 1159586)). Conditions: recombinant PfPK6, Kinase-Glo ATP depletion luminescence.
Plasmodium falciparum protein kinase 6 (PK6, PF3D7_1337100), sequence (Q8IDW1 1-305): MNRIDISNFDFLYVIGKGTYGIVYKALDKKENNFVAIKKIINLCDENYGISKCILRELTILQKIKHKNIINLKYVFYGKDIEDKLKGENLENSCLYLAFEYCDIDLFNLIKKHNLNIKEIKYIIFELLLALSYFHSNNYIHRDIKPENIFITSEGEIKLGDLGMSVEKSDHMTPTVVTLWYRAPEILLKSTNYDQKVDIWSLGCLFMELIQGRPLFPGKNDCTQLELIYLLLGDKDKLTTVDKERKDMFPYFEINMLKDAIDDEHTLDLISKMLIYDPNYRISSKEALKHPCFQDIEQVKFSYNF

Row | Compound | IC50 [nM]
1 | CNC(=O)c1ccccc1Nc1nc(Nc2ccc(N3CCOCC3)cc2)ncc1Cl | 42
2 | CN(C)Cc1cccc(-c2cc3c(-c4cnn(C)c4)c(Cl)cnc3[nH]2)c1 | 128
3 | O=S1(=O)NCc2ccc(Nc3nccc(Nc4ccc5c(cnn5Cc5ccccc5)c4)n3)cc21 | 265
4 | CC(=O)Nc1ccc(Nc2ncc([N+](=O)[O-])c(Nc3ccccc3C(N)=O)n2)cc1 | 128
5 | COc1ccc(Nc2ncc3c(-c4cccc(NC(=O)Cc5ccc(O)cc5)c4)c[nH]c3n2)cc1OC | 445
6 | CNC(=O)c1ccccc1Nc1nc(Nc2ccc(CCN3CCN(C)CC3)cc2)ncc1Cl | 70
7 | CNC(=O)c1ccccc1Nc1nc(Nc2cccc(CS(C)(=O)=O)c2)ncc1C | 133
8 | CC(=O)Nc1cccc(Nc2nccc(-c3c(-c4cccc(NC(=O)c5c(F)cccc5F)c4)nn4ncccc34)n2)c1 | 144
9 | CC(=O)c1ccc(NC(=O)Nc2ccc(N(C)c3ccnc(Nc4cccc(CS(C)(=O)=O)c4)n3)cc2)cc1 | 138
10 | CN(c1ccc(NC(=O)Nc2cc(C(C)(C)C)on2)cc1)c1ccnc(NCCN2CCOCC2)n1 | 375
11 | Cc1cc(Nc2nc(Nc3cccc(Cl)c3)nc3ccccc23)n[nH]1 | 151
12 | Cn1cnc2c(Nc3ccncc3)nc(-c3ccc4c(c3)OCO4)nc21 | 500
13 | COc1cccc(-n2ncc3c(N/N=C/c4ccc(CN(C)CCN(C)C)cc4)ncnc32)c1 | 58
14 | CCN(CC)CCCNc1nccc(N(C)c2ccc(NC(=O)Nc3cc(C(F)(F)F)ccc3F)cc2)n1 | 705
15 | CN(c1ccc2c(c1)nc(NCc1ccc(F)cc1)n2C)c1ccnc(Nc2ccc(CS(C)(=O)=O)cc2)n1 | 844
16 | CNC(=O)c1ccccc1Nc1nc(Nc2ccc(N3CCN(C)CC3)nc2)ncc1C | 143
17 | N=C(N)c1ccc(Nc2nc(Nc3ccc(-c4ccccc4)cc3)ncc2[N+](=O)[O-])cc1 | 164
18 | CN(c1ccc2c(c1)nc(NCc1ccccc1)n2C)c1ccnc(Nc2ccc(CS(C)(=O)=O)cc2)n1 | 464
19 | NCCNC(=O)c1ccc(-c2cnc3[nH]cc(-c4ccc(C(N)=O)cc4)c3c2)cc1 | 931
20 | CS(=O)(=O)Cc1ccc(Nc2nccc(-c3c(-c4cccc(C(=O)Nc5c(F)cccc5F)c4)nn4ccccc34)n2)cc1 | 105
21 | O=c1[nH]ccc2nc(N[C@@H]3CCCNC3)nc(Nc3ccc(S(=O)(=O)N4CCOCC4)cc3)c12 | 115
22 | Cc1cc(Nc2ncc(C#N)c(Nc3ccccc3C(N)=O)n2)ccc1N1CCN(C)CC1 | 54

Row | Compound | IC50 [nM]
23 | CS(=O)(=O)Cc1ccc(Nc2nccc(-c3c(-c4cccc(NC(=O)C5CCCCC5)c4)nn4ncccc34)n2)cc1 | 139
24 | Cn1nc(-c2ccc(NC(=O)Nc3ccc4ccccc4c3)c(F)c2)c2cnc(NCCN3CCOCC3)nc21 | 860
25 | O=C(Cc1ccc(Nc2nccc(Nc3cccc4[nH]ncc34)n2)cc1)Nc1ccc(C(F)(F)F)cc1 | 167
26 | Cc1cc(Nc2ncc(Cl)c(Nc3ccccc3C(N)=O)n2)n[nH]1 | 129
27 | CS(=O)(=O)Cc1ccc(Nc2ncc(Cl)c(Nc3cccnc3C(N)=O)n2)cc1 | 691
28 | COc1ccc(Nc2ncc(C#N)c(Nc3ccccc3C(N)=O)n2)cc1N1CCN(C)CC1 | 61
29 | Cc1ccc(S(=O)(=O)Nc2ccc(Nc3nccc(Nc4cccc5[nH]ncc45)n3)cc2)cc1 | 823
30 | CS(=O)(=O)Cc1ccc(Nc2nccc(-c3c(-c4cccc(NC(=O)c5c(F)cccc5F)c4)nn4ccccc34)n2)cc1 | 276
31 | CCNC(=O)Nc1ccc(N(C)c2ccnc(Nc3ccc(CS(C)(=O)=O)cc3)n2)cc1 | 269
32 | CS(=O)(=O)Cc1cccc(Nc2ncc(Cl)c(Nc3cccnc3C(N)=O)n2)c1 | 74
33 | CC(=O)Nc1nc(C)c(-c2csc(Nc3ccc(Cl)cc3)n2)s1 | 95
34 | COc1ccc(Nc2ncc(OC)c(Nc3ccccc3C(N)=O)n2)cc1N1CCN(C)CC1 | 270
35 | CS(=O)(=O)Cc1ccc(Nc2nccc(N3CCCc4cc(NC(=O)Nc5cccc(C(F)(F)F)c5)ccc43)n2)cc1 | 385
36 | CN1CCC(NC(=O)c2cccc(Nc3cc(Nc4cccc(Br)c4)ncn3)c2)CC1 | 602
37 | Nc1ncnc2occ(-c3ccc(NC(=O)Nc4cc(C(F)(F)F)ccc4F)cc3)c12 | 335
38 | Cn1cc(-c2ccnc3[nH]c(-c4cccc(CNC5CCC(O)CC5)c4)cc23)cn1 (centres undefined) | 177
39 | Nc1ncc(-c2cccc(F)c2)cc1-c1nc2ccc(F)cc2[nH]1 | 206
40 | N#Cc1cnc(Nc2ccc(Oc3ccccc3)cc2)nc1Nc1cccc(S(N)(=O)=O)c1 | 201
41 | CN(C)CC(O)COc1ccc(Nc2ncc([N+](=O)[O-])c(Nc3ccccc3O)n2)cc1 (centres undefined) | 67
42 | CCN(CC)CCOc1ccc(Nc2ncc3cc(-c4c(Cl)cccc4Cl)c(=O)n(C)c3n2)cc1 | 350
43 | CCN(CC)CCNc1nccc(N(C)c2ccc(NC(=O)Nc3cc(C(F)(F)F)ccc3F)cc2)n1 | 917
44 | NS(=O)(=O)c1cccc(Nc2nccc(-c3cnn4ncccc34)n2)c1 | 246

Row | Compound | IC50 [nM]
45 | COc1ccc(Nc2ncc(Cl)c(Nc3cccnc3C(N)=O)n2)cc1N1CCN(C)CC1 | 86
46 | C#CCNC(=O)c1ccc(-c2ccnc(Nc3cccc(CCCN4CCOCC4)c3)n2)s1 | 181
47 | COc1c(CN2CCCC2)cccc1-c1cc2c(-c3ccc(C(=O)O)c(C(C)C)c3)ccnc2[nH]1 | 541
48 | NS(=O)(=O)c1ccc(Nc2nccc(-c3c(-c4cccc(NC(=O)c5c(F)cccc5F)c4)nn4ccccc34)n2)cc1 | 140
49 | CN1CCN(c2ccc(Nc3nccc(-c4cnn5ncccc45)n3)cc2Cl)CC1 | 179
50 | CN(c1ccc(NC(=O)Nc2cc(C(F)(F)F)ccc2F)cc1)c1ccnc(NCCN2CCOCC2)n1 | 520
51 | C(=N\Nc1nccc2sc(-c3ccccc3)cc12)/c1cccnc1 | 278
52 | Cc1ccc(Nc2nc3cc(Nc4ccnc(Nc5cccc(CS(C)(=O)=O)c5)n4)ccc3o2)cc1 | 229
53 | CN1CCN(c2ccc(Nc3ncc(C#N)c(Nc4ccccc4C(N)=O)n3)cc2)CC1 | 89
54 | NCCNS(=O)(=O)c1ccc(-c2ccnc3[nH]c(-c4ccncc4)cc23)cc1 | 207
55 | Cc1ccc(Nc2ccnc(Nc3ccc4c(c3)CS(=O)(=O)C4)n2)cc1O | 122
56 | NC(=O)c1ccccc1Nc1nc(Nc2cccc(N3CCN(CCO)CC3)c2)ncc1Cl | 80
57 | O=C(Nc1cccc(-c2nn3ccccc3c2-c2ccnc(Nc3ccc(NCCCN4CCOCC4)c(F)c3)n2)c1)c1c(F)cccc1F | 580
58 | COc1c(CN2CCOCC2)cccc1-c1cc2c(-c3ccc(C(=O)O)c(C(C)C)c3)ccnc2[nH]1 | 695
59 | CN(c1ccc(NC(=O)Nc2cccc(Cl)c2)cc1)c1ccnc(N)n1 | 402
60 | Cn1c(=O)c(-c2c(Cl)cccc2Cl)cc2cnc(Nc3ccc(N4CCOCC4)cc3)nc21 | 145
61 | N=C(N)c1ccc(Nc2nccc(Nc3nc(-c4ccccc4)cs3)n2)cc1 | 413
62 | CC(c1cccc(Nc2nccc(-c3c(-c4cccc(NC(=O)c5c(F)cccc5F)c4)nn4ncccc34)n2)c1)S(C)(=O)=O (centres undefined) | 375
63 | CCN(CC)CCCOc1ccc(Nc2nccc(-c3c(-c4cccc(NC(=O)c5c(F)cccc5F)c4)nn4ccccc34)n2)cc1F | 302
64 | CCN(CC)CCNC(=O)c1ccc(Nc2ncc([N+](=O)[O-])c(Nc3ccccc3OC)n2)cc1 | 110
